From patent publication US7605176B2 (Boehringer Ingelheim International GmbH, priority 2004, dated 2009)

Molecular target: T1, hMCH-1R (Homo sapiens, UniProt Q99705)
T1 construct: expressed in transfected cells
T1 sequence (Q99705 whole entry): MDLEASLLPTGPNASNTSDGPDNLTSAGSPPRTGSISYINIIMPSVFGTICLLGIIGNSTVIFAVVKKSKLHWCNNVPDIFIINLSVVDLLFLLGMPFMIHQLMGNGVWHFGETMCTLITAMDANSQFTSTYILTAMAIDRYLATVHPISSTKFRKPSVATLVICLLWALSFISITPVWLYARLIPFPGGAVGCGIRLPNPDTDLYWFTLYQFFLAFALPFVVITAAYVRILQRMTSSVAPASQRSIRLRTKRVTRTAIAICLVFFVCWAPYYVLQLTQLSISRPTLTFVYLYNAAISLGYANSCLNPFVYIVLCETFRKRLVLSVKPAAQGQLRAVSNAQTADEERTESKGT
Experiment: MCH-1 receptor binding test (125I-MCH binding to membranes of hMCH-1R transfected CHO/Galpha16 cells)
Details: competition with 100 pM 125I-MCH, membranes of CHO/Galpha16 cells stably transfected with hMCH-1R
Protocol: Membranes from CHO/Galpha16 cells stably transfected with human hMCH-1R are resuspended using a syringe (needle 0.6×25 mm) and diluted in test buffer (50 mM HEPES, 10 mM MgCl2, 2 mM EGTA, pH 7.00; 0.1% bovine serum albumin (protease-free), 0.021% bacitracin, 1 μg/mL aprotinin, 1 μg/mL leupeptin, and 1 μM phosphoramidone) to a concentration of 5 to 15 μg/mL.
After the incubation the reaction is filtered using a cell harvester through 0.5% PEI treated fiberglass filters (GF/B, Unifilter Packard). The membrane-bound radioactivity retained on the filter is then determined after the addition of scintillator substance (Packard Microscint 20) in a measuring device (TopCount of Packard).
The analysis of the concentration binding curve is carried out on the assumption of one receptor binding site.
`CCN(CC)CCOc1ccc(NC(=O)CC(=O)c2ccc(C(F)(F)F)cc2Cl)cc1Cl` [Example 7.1] showed an IC50 of 34.8 nM. For `O=C(CC(=O)c1ccc(-c2ccccc2)cc1)NCCc1ccc(CN2CCCC2)cc1` [Example 5.1], the IC50 was 63.7 nM.

Test system: not given
Experiment: not given
Details: not given
`O=C(CC(=O)c1ccc(-c2ccccc2)cc1)Nc1ccc(OCCN2CCCC2)c(C(=O)O)c1` [Example 8, 5-(3-biphenyl-4-yl-3-oxopropionylamino)-2-(2-pyrrolidin-1-ylethoxy)benzoic acid] showed a melting point of 236 to 240 °C. `COC(=O)c1cc(NC(=O)CC(=O)c2ccc(-c3ccccc3)cc2)ccc1OCCN1CCCC1` [Example 1.9, methyl 5-(3-biphenyl-4-yl-3-oxopropionylamino)-2-(2-pyrrolidin-1-ylethoxy)benzoate] showed a melting point of 131 to 135 °C. In the case of `O=C(CC(=O)c1ccc(-c2ccccc2)cc1)NCCc1ccc(CN2CCCC2)cc1` [Example 5.1], the melting point is reported as 121 to 125 °C. `CCN(CC)CCOc1ccc(NC(=O)CC(=O)c2ccc(-c3ccccc3)cc2)cc1Cl` [Example 7, 3-biphenyl-4-yl-N-[3-chloro-4-(2-diethylaminoethoxy)phenyl]-3-oxopropionamide] gave a melting point of 148 to 151 °C. In the case of `CC1CCN(CCOc2ccc(NC(=O)CC(=O)c3ccc(-c4ccccc4)cc3)cc2Cl)CC1` [Example 1, 3-biphenyl-4-yl-N-{3-chloro-4-[2-(4-methylpiperidin-1-yl)ethoxy]phenyl}-3-oxopropionamide], the melting point is reported as 135 to 139 °C.
